# Patent publication US6861554B2, “Creatine salt having enhanced nutritional and therapeutic efficacy and compositions containing same” (Biosalts s.r.l., priority 2001, dated 2005)
# Columns and labels:
# muscle cells = experiment: increase in glucose uptake by the muscle cells with respect to insulin; type: cell-based
# [1] = stability and hygroscopicity of the salt; type: physicochemical
compound,measurement,setting,value
"CN(CC(=O)O)C(=N)N.O [Creatine monohydrate, creatine monohydrate]",Glucose uptake (percentage of increase in the glucose uptake by the muscle cells with respect to insulin),muscle cells; 2.5 grams of substance,1-2%
Creatine Taurinate,hygroscopicity,[1],non hygroscopic
same,stability,[1],stable
same,Glucose uptake (percentage of increase in the glucose uptake by the muscle cells with respect to insulin),muscle cells; 5.0 grams of substance,25-28%
"NCCS(=O)(=O)O [Taurine, 2-aminoethanesulphonic acid]",Glucose uptake (percentage of increase in the glucose uptake by the muscle cells with respect to insulin),muscle cells; 2.5 grams of substance,15-18%
